Key:
[1] = tested on: APESV (Apera spica-venti, windgrass); assay: greenhouse experiment, pre-emergence herbicidal activity against APESV; type: in vivo; conditions: pre-emergence method, scale from 0 to 100
Description: The seeds of the test plants were sown separately for each species. For the pre-emergence treatment, the active ingredients, which had been suspended or emulsified in water, were applied directly after sowing by means of finely distributing nozzles. The containers were irrigated gently to promote germination and growth and subsequently covered with transparent plastic hoods until the plants had rooted. This cover caused uniform germination of the test plants, unless this has been impaired by the active ingredients. Depending on the species, the plants were kept at 10-25° C. or 20-35° C. The test period extended over 2 to 4 weeks. During this time, the plants were tended, and their response to the individual treatments was evaluated. Evaluation was carried out using a scale from 0 to 100. 100 means no emergence of the plants, or complete destruction of at least the aerial moieties, and 0 means no damage, or normal course of growth. A good herbicidal activity is given at values of at least 70 and a very good herbicidal activity is given at values of at least 85. The plants used in the greenhouse experiments belonged to the following species: [table]

Row | melting point [°C] | SMILES | further results
1 |  | C=CCC1(Cc2ccccc2)C(=O)N(C)/C(=C\c2ccccc2C#N)C(=O)N1C (stereo not shown) [Example 2, 2-(5-Benzyl-1,4-dimethyl-5-allyl-3,6-dioxo-piperazin-(Z)-2-ylidenemethyl)-benzonitrile] | herbicidal activity against APESV ([1]; application rate 1.0 kg/ha): very good (a very good herbicidal activity is given at values of at least 85)
2 |  | CSC1(Cc2ccccc2)C(=O)N(C)C(=Cc2ccccc2C#N)C(=O)N1C (stereo not shown) [1a/1b, 2-(5-Benzyl-1,4-dimethyl-5-methylsulfanyl-3,6-dioxopiperazin-2-ylidenemethyl)benzonitrile] | herbicidal activity against APESV ([1]; application rate 0.5 kg/ha): good to very good
3 | 169 | CN1C(=O)C2(CC2c2ccccc2)N(C)C(=O)/C1=C/c1cccnc1Cl (stereo not shown) [Example 33] | 
4 | 170 to 172 | CN1C(=O)c2cc3c([N+](=O)[O-])ccc(F)c3n2C(=O)C1(C)Cc1ccccc1 (stereo not shown) [Example 23] | 
5 | 145 | CN1C(=O)C2(CC2c2ccccc2)N(C)C(=O)/C1=C/c1ccccc1[N+](=O)[O-] (stereo not shown) [Example 30, 6-[1-(2-Nitrophenyl)-meth-(Z)-ylidene]-4,7-dimethyl-1-phenyl-4,7-diazaspiro[2.5]octane-5,8-dione] | 
6 | 180 | CN1C(=O)c2cc3cccnc3n2C(=O)C1(C)Cc1ccccc1 (stereo not shown) [Example 24] | 
7 |  | CN1C(=O)C(Cc2ccccc2)(C(=O)C(F)(F)F)N(C)C(=O)/C1=C/c1ccccc1C#N (stereo not shown) [Example 4, 2-[5-Trifluoroacetyl-5-benzyl-1,4-dimethyl-3,6-dioxopiperazin-(Z)-2-ylidenemethyl]benzonitrile] | herbicidal activity against APESV ([1]; application rate 0.5 kg/ha): good to very good
8 | 190 | CN1C(=O)C2(CC2c2ccccc2)N(C)C(=O)/C1=C/c1ccccc1C#N (single isomer, unassigned) [Example 32] | 
9 | 78 | CN1C(=O)C2(CC2c2ccccc2)N(C)C(=O)/C1=C/c1ccccc1Br (stereo not shown) [Example 31] | 
10 | 224 | CN1C(=O)C2(CC2c2ccccc2)N(C)C(=O)/C1=C/c1cccnc1C#N (single isomer, unassigned) [Example 34] | 

— patent US20100167933A1, “Piperazine Compounds With Herbicidal Action” (priority 2007, published 2010)
